Laboratory results as given in patent US20010012854A1, “MULTICATALYTIC PROTEASE INHIBITORS FOR USE AS ANTI-TUMOR AGENTS” (priority 1997, published 2001).

Tests used:
[1] = system: OVCAR-3 ovarian carcinoma; test: Calcein-AM viability assay, OVCAR-3; assay type: cell-based; details: Homo sapiens
Experimental: (§1) Cells were initially seeded in 96-well plates at varying density, then assayed using the Calcein-AM viability assay after 24 hours to determine the optimal final density for each cell type. Cells were then seeded in 96-well plates at this density in 100 μL of the proper cell media as follows:
(§2) Serial dilutions of the compounds were made so that concentrations were twice the desired concentration to be evaluated. When 100 μL of the dilution was then added to the cells plated in 100 μL of media, a final concentration of 0, 11.7, 46.9, 187.5, 375 and 750 nM was obtained. Compounds were added to the plates three to four hours after seeding the cells, then the plates were incubated at 37° C. for the desired time point (generally one, two, or three day incubations).
(§3) Calcein-AM viability assays were conducted at the desired time points as follows. Media were aspirated using a manifold and metal plate to leave approximately 50 μL/well. The wells were then washed three times with 200 μL DPBS (Gibco), aspirating each time with the manifold to leave 50 μL/well. A 8 μM solution of Calcein-AM (Molecular Probes) in DPBS was prepared and 150 μL was added to each well. The plates were then incubated at 37° C. for 30 minutes. […] After the final aspiration, fluorescence was measured using a Cytofluor 2300 fluorescence plate reader. […]

[2] = system: Lewis Lung carcinoma xenografts; test: In vivo growth of Lewis Lung carcinoma xenografts in athymic nude mice; set-up: species or system murine; details: 3 mg/kg, s.c., QD, 5 days a week, 12 days
Experimental: Female athymic nude mice were injected s.c. with 1×10^6 Lewis Lung carcinoma cells into the right rear flank. Upon tumors achieving 150 to 200 mm^3 in volume, mice were randomized into groups of ten animals each and dosing commenced with Compound I (2 mg/kg, s.c., QD, 5 days a week), Compound J (3 mg/kg, s.c., QD, 5 days a week), or vehicle alone (30% Solutol) for a total of 12 days. Tumor measurements (volume) were determined with vernier calipers in two dimensions every two to three days. Statistical analyses of drug-associated anti-tumor efficacy relative to vehicle-treated controls were conducted using the Mann-Whitney Rank sum test.

[3] = system: PANC-1 pancreatic carcinoma; test: Calcein-AM viability assay, PANC-1; assay type: cell-based; details: Homo sapiens
Experimental: as §1, §2, §3

[4] = system: MCF-7 breast carcinoma; test: Calcein-AM viability assay, MCF-7; assay type: cell-based; details: Homo sapiens, MCF7
Experimental: as §1, §2, §3

[5] = system: Lewis lung (murine) lung carcinoma; test: Calcein-AM viability assay, Lewis Lung; assay type: cell-based; details: Mus musculus
Experimental: as §1, §2, §3

[6] = system: AT-2 (rat) prostatic carcinoma; test: Calcein-AM viability assay, AT-2; assay type: cell-based
Experimental: as §1, §2, §3

[7] = system: SKMEL-5 melanoma; test: Calcein-AM viability assay, SKMEL-5; assay type: cell-based; details: Homo sapiens, SK-MEL-5
Experimental: as §1, §2, §3

[8] = system: DU145 prostatic carcinoma; test: Calcein-AM viability assay, DU-145; assay type: cell-based; details: Homo sapiens
Experimental: as §1, §2, §3

[9] = system: murine melanoma cell line, B16-F0; test: In vivo B16-F0 melanoma tumor growth in C57BL mice; details: 10 mg/kg/day, ip
Experimental: a. Materials: MCP inhibitors used for in vivo studies (Compounds D and E) were each formulated in 25% Solutol.
b. Cell line: The murine melanoma cell line, B16-F0, was grown at 37° C. in a humidified incubator, with a 95% air/5% CO2 atmosphere, in Dulbecco's modified Eagle's medium with 4.5 g/l glucose (Cellgro/Mediatech, Washington, D.C.) containing 10% fetal bovine serum (Hyclone Labs, Logan, Utah), 2 mM glutamine (GibcoBRL, Long Island, N.Y.), penicillin (100 I.U./mL) (GibcoBRL), and streptomycin (100 μg/mL) (GibcoBRL). The cells were determined to be free of mycoplasma and rodent viruses (MAP testing). Exponentially growing cells were harvested using 5 mL of warm trypsin/EDTA (0.05%, 0.5 mM)((GibcoBRL). The total volume was brought up to 10 mL with Complete Medium to neutralize trypsin and cells were counted with a hemocytometer. The cells were then collected by brief centrifugation and the cell pellet was resuspended in Phosphate Buffered Saline (GibcoBRL) to achieve the final concentration of 1×10^7 live cells/ml.
c. Animals: Female C57BL mice (20-25 g) obtained from Harlan Sprague Dawley, Indianapolis, Ind. were maintained five mice/cage and given a commercial diet and water ad libitum. […]
e. Tumor measurements: Tumors were measured using a vernier caliper every 2 to 3 days. Tumor volume was calculated using the formula: […]

[10] = target: MCP chymotrypsin-like activity (Homo sapiens, UniProt P28074); test: Inhibition of MCP chymotrypsin-like activity; assay type: biochemical
Text: (§4) The rank-order potency for Jurkat cell killing precisely matched the order for MCP inhibition (Table 2, below).
Inhibition of the chymotrypsin-like activity of MCP by the disclosed MCP inhibitors has been reported, but these MCP inhibitors produced relatively little inhibition on the MCP trypsin-like activity and cathepsin B, a vacuolar cysteine protease (Iqbal, M., et al. J. Med Chem. 38: 2276-2277, 1995; Iqbal, M., et al. Bioorg. Med. Chem. Lett. 6: 287-290, 1996; and Harding, C. V., et al. J. Immuno. 155: 1767-1775, 1995). Furthermore, the order of potency for inhibition of the chymotrypsin-like activity was reported to be Compound A>Compound B>Compound C by using both isolated MCP and intact murine B cells (Iqbal, M., et al. J. Med Chem. 38: 2276-2277, 1995; Iqbal, M., et al. Bioorg. Med. Chem. Lett. 6: 287-290, 1996; and Harding, C. V., et al. J. Immuno. 155: 1767-1775, 1995).

[11] = system: Jurkat Human T Cell Leukemia Line; test: Jurkat cell viability assay (XTT reduction); assay type: cell-based; details: Jurkat cells, 24 hours, viability by XTT reduction, read-out: Toxicity (IC50)
Experimental: f. Cell viability assay. Jurkat cells were treated with MCP inhibitors or vehicle for 30 min. at 37° C. Next, ionomycin (1 μM) and the phorbol ester PMA (10 ng/ml) were added, together with 0.2% ethanol. After 24 h, cell viability was assessed by reduction of XTT (Sigma, X4251). To each well, 50 μl of XTT (1 mg/ml) and 25 μl PMS (Sigma 9625, 5 mM) were added. After 3 h at 37° C., the OD of each well was read at 450 nm/690 nm by a plate reader.
as §4

IC50 ([1]; OVCAR-3, 24 h) | IC50 ([1]; OVCAR-3, 72 h) | IC50 ([3]; PANC-1, 24 h) | IC50 ([3]; PANC-1, 72 h) | IC50 ([4]; MCF-7, 24 h) | IC50 ([4]; MCF-7, 72 h) | IC50 ([5]; 24 h) | IC50 ([5]; 72 h) | IC50 ([6]; AT-2, 24 h) | IC50 ([6]; AT-2, 72 h) | IC50 ([7]; SKMEL-5, 24 h) | IC50 ([7]; SKMEL-5, 72 h) | IC50 ([8]; DU-145, 24 h) | IC50 ([8]; DU-145, 72 h) | IC50 [10] | Structure (SMILES) | Lung carcinoma tumor growth (tumor volume) [2] | Melanoma tumor growth (tumor volume) [9] | IC50 [11]
> 1000 nM | 29 nM | > 1000 nM | 185 nM | > 1000 nM | 289 nM | 411 nM | 505 nM | > 1000 nM | > 1000 nM | 427 nM | 82 nM | 385 nM | 167 nM | – | CC(C)C[C@@H](NC(=O)[C@H](CCCN/C(N)=N/[N+](=O)[O-])NC(=O)C(CCCCCCCCN1C(=O)c2ccccc2C1=O)C1CCCC1)B1O[C@H]2CC3CC(C3(C)C)C2(C)O1 (stereo partly shown) [Compound J] | inhibit lung carcinoma tumor growth | – | –
– | – | – | – | – | – | – | – | – | – | – | – | – | – | – | CC(C)C[C@H](NC(=O)[C@H](CCCN/C(N)=N/[N+](=O)[O-])NC(=O)C(CCCCCCCCN1C(=O)c2ccccc2C1=O)C1CCCC1)B(O)O (stereo partly shown) [E] | – | inhibit melanoma tumor growth | –
– | – | – | – | – | – | – | – | – | – | – | – | – | – | 5 nM | CC(C)C[C@H](NC(=O)[C@H](CCCNC(N)=N[N+](=O)[O-])NC(=O)C(CCCCCCCCC#N)C1CCCC1)B(O)O (stereo partly shown) [D] | – | inhibit melanoma tumor growth | 600 nM
